Assay results taken from ChEMBL document CHEMBL1128591, “1,2-Diarylcyclopentenes as selective cyclooxygenase-2 inhibitors and orally active anti-inflammatory agents” (J Med Chem, 1995).

How the values were obtained:
Rattus norvegicus [1] = species: Rattus norvegicus; assay: animal or person; conditions: read-out: Inhibition
Rattus norvegicus [2] = species: Rattus norvegicus; assay: animal or person; conditions: read-out: Inhibition; remark: listed apart in the source
[3] = target: Prostaglandin G/H synthase 1 (Homo sapiens, UniProt P23219)
Sequence of Prostaglandin G/H synthase 1 (P23219 whole entry): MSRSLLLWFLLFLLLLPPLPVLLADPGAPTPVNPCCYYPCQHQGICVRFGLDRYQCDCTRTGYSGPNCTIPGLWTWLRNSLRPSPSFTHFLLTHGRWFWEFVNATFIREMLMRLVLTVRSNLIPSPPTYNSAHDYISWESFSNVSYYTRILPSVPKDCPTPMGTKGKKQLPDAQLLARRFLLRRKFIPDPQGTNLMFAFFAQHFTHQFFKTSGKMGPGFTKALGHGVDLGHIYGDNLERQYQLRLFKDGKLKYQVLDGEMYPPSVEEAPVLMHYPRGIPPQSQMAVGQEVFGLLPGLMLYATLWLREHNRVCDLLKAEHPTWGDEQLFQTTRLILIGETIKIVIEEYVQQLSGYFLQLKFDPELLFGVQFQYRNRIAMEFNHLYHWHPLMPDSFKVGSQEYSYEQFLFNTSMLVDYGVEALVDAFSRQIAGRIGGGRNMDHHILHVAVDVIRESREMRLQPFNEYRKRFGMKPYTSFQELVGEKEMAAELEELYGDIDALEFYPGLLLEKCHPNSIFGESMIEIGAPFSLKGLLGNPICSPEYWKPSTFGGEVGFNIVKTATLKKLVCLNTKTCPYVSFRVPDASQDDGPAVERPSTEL

| IC50 [3] [µM] | Compound | inhibition in vivo at 1 mg/kg (Rattus norvegicus [1]) [%] | inhibition in vivo at 30 mg/kg (Rattus norvegicus [2]) [%] |
| --- | --- | --- | --- |
|  | COc1ccc(C2=C(c3ccc(S(C)(=O)=O)cc3)CCC2)cc1 | 0 | 42.7 |
| 37.7 | CN(C)c1ccc(C2=C(c3ccc(S(C)(=O)=O)cc3)CCC2)cc1Cl |  |  |
| 14.5 | NS(=O)(=O)c1ccc(C2=C(c3ccc(C(F)(F)F)c(F)c3)CCC2)cc1 |  |  |
|  | COc1ccc(C2=C(c3ccc(S(N)(=O)=O)cc3)CCC2)cc1Cl | 25 | 32 |
|  | NS(=O)(=O)c1ccc(C2=C(c3ccc(Cl)c(Cl)c3)CCC2)cc1 | 83 | 31 |
| 1.8 | CN(C)c1ccc(C2=C(c3ccc(S(N)(=O)=O)cc3)CCC2)cc1Cl |  |  |
|  | COc1ccc(C2=C(c3ccc(S(N)(=O)=O)cc3)CCC2)cc1F | 25 |  |
|  | COc1ccc(C2=C(c3ccc(S(N)(=O)=O)cc3)CCC2)cc1 |  | 10 |
|  | CS(=O)(=O)c1ccc(C2=C(c3ccc(Cl)c(Cl)c3)CCC2)cc1 | 45 |  |
| 5.1 | NS(=O)(=O)c1ccc(C2=C(c3ccc(F)c(Cl)c3)CCC2)cc1 | 81.5 | 43.3 |
|  | NS(=O)(=O)c1ccc(C2=C(c3ccc(F)cc3)CCC2)cc1 | 79 | 45.3 |
| > 10 | CS(=O)(=O)Nc1cc2c(cc1Sc1ccc(F)cc1F)C(=O)CC2 |  |  |
| > 100 | COc1c(Cl)cc(C2=C(c3ccc(S(C)(=O)=O)cc3)CCC2)cc1Cl |  |  |
| 71.6 | COc1c(Cl)cc(C2=C(c3ccc(S(N)(=O)=O)cc3)CCC2)cc1Cl |  |  |
|  | CS(=O)(=O)c1ccc(C2=C(c3ccc(F)c(Cl)c3)CCC2)cc1 |  | 40 |
| > 100 | CS(=O)(=O)c1ccc(C2=C(c3ccc(C(F)(F)F)c(F)c3)CCC2)cc1 |  |  |
| > 100 | NS(=O)(=O)c1ccc(C2=C(c3cc(F)c(F)c(F)c3)CCC2)cc1 |  |  |
|  | CS(=O)(=O)c1ccc(C2=C(c3ccc(Cl)cc3)CCC2)cc1 | 21 | 49 |
| > 100 | CS(=O)(=O)c1ccc(C2=C(c3cc(F)c(F)c(F)c3)CCC2)cc1 |  |  |
| > 100 | CS(=O)(=O)c1ccc(C2=C(c3ccc(F)c(C(F)(F)F)c3)CCC2)cc1 |  |  |
| 1.9 | NS(=O)(=O)c1ccc(C2=C(c3ccc4c(c3)OCO4)CCC2)cc1 |  |  |
|  | CS(=O)(=O)c1ccc(C2=C(c3ccc(F)cc3)CCC2)cc1 [SC-57666] | 29.3 | 45.3 |
